pKi: −log10 of the molar value.

The target of one assay is human α2δ-1 subunit of Cav2.2 calcium channel (Homo sapiens (Human), UniProt P54289). Description: Binding assay to human α2δ-1 subunit of Cav2.2 calcium channel ([3H]-Gabapentin).
Chain of human α2δ-1 subunit of Cav2.2 calcium channel (P54289 25-1103): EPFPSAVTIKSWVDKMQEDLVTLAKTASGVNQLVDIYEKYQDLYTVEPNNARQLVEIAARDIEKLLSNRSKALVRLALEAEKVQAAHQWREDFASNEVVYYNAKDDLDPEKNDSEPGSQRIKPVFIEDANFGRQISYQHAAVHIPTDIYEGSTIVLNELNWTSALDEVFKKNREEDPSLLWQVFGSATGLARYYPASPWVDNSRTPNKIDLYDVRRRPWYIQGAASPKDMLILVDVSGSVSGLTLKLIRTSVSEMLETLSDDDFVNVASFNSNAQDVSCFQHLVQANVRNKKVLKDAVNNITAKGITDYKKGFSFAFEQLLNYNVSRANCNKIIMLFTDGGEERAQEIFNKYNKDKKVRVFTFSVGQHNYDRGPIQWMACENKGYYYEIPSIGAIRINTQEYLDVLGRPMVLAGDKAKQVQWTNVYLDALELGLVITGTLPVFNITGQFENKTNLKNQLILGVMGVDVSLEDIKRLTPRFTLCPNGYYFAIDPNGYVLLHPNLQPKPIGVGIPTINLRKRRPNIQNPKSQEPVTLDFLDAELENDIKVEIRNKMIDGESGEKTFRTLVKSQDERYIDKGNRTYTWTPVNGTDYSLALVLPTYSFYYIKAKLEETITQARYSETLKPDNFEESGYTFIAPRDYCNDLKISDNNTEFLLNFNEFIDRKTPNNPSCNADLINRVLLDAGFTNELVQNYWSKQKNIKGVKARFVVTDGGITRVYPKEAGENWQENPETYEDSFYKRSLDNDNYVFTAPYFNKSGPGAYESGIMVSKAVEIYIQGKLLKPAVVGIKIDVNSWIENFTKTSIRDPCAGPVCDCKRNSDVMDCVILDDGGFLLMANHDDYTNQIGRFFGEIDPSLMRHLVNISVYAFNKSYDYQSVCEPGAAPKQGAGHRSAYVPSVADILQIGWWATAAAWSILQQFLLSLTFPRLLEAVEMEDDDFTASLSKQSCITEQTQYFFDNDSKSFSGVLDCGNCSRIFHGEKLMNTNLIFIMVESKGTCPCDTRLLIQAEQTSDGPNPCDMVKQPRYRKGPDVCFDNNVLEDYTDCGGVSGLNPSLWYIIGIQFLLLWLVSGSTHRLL
Conditions: not given
In a few lines: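 Radioactivity on dried GF/C filters quantified by scintillation after filtration and three cold Tris-HCl (pH 7.4) washes. Incubation ran 60 min at 27° C with [3H]-gabapentin; 10 μM pregabalin gave nonspecific binding.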
`CCNc1ncc2c(n1)N(C)CCN(c1cccc(-n3cc(CN4CCC(c5cccc(O)c5)(N(C)C)CC4)nn3)c1)C2=O` [Example 293, 6-(3-(4-((4-(dimethylamino)-4-(3-hydroxyphenyl)piperidin-1-yl)methyl)-1H-1,2,3-triazol-1-yl)phenyl)-2-(ethylamino)-9-methyl-6,7,8,9-tetrahydro-5H-pyrimido[4,5-e] [1,4]diazepin-5-one]: the negative-log Ki (pKi) is 6.30 to 7.00.

Still in this assay, the particulars now being: binding to α2δ-1, [3H]-Gabapentin; read-out: Ki (nM) α2δ-1.
In the case of `CCNc1ncc2c(n1)N(C)CCN(c1cccc(CCOS(=O)(=O)c3ccc(C)cc3)c1)C2=O` [Example 274, 3-(2-(Ethylamino)-9-methyl-5-oxo-5,7,8,9-tetrahydro-6H-pyrimido[4,5-e][1,4]diazepin-6-yl)phenethyl 4-methylbenzenesulfonate], the Ki is > 3000 nM.
Still for that read-out and setting: with `CCNc1ncc2c(n1)N(C)CCN(c1cccc(CCN3CCC4(CC3)CN(C(C)C)C(=O)[C@@H](C)O4)c1)C2=O` [Example 276, (R)-9-(3-(2-(ethylamino)-9-methyl-5-oxo-5,7,8,9-tetrahydro-6H-pyrimido[4,5-e][1,4]diazepin-6-yl)phenethyl)-4-isopropyl-2-methyl-1-oxa-4,9-diazaspiro[5.5]undecan-3-one] the figure was 100 to 500 nM; with `CCNc1ncc2c(n1)N(C)CCN(c1cccc(-n3cc(CN4CCN(c5ccccc5)CC4)nn3)c1)C2=O` [Example 280, 2-(ethylamino)-9-methyl-6-(3-(4-((4-phenylpiperazin-1-yl)methyl)-1H-1,2,3-triazol-1-yl)phenyl)-6,7,8,9-tetrahydro-5H-pyrimido[4,5-e] [1,4]diazepin-5-one], 100 to 500 nM.
On the same count and under the same terms, with `CCNc1ncc2c(n1)N(C)CCN(c1cccc(-n3cc(CN4CCc5ccccc5C4)nn3)c1)C2=O` [Example 282, 6-(3-(4-((3,4-dihydroisoquinolin-2(1H)-yl)methyl)-1H-1,2,3-triazol-1-yl)phenyl)-2-(ethylamino)-9-methyl-6,7,8,9-tetrahydro-5H-pyrimido[4,5-e] [1,4]diazepin-5-one] the figure was 500 to 3000 nM; with `CCNc1ncc2c(n1)N(C)CCN(c1cccc(-n3cc(CN4CCC5(CC4)NCCc4ccccc45)nn3)c1)C2=O` [Example 283, 6-(3-(4-((3,4-dihydro-2H-spiro[isoquinoline-1,4′-piperidin]-1′-yl)methyl)-1H-1,2,3-triazol-1-yl)phenyl)-2-(ethylamino)-9-methyl-6,7,8,9-tetrahydro-5H-pyrimido[4,5-e] [1,4]diazepin-5-one], 100 to 500 nM; with `CCNc1ncc2c(n1)N(C)CCN(c1cccc(-n3cc(CN4CCC5(CC4)CN(C(C)C)C(=O)[C@@H](C)O5)nn3)c1)C2=O` [Example 284, (R)-9-((1-(3-(2-(ethylamino)-9-methyl-5-oxo-5,7,8,9-tetrahydro-6H-pyrimido[4,5-e] [1,4]diazepin-6-yl)phenyl)-1H-1,2,3-triazol-4-yl)methyl)-4-isopropyl-2-methyl-1-oxa-4,9-diazaspiro[5.5] undecan-3-one], 100 to 500 nM.
On to `CCNCc1cn(-c2cccc(N3CCN(C)c4nc(NCC)ncc4C3=O)c2)nn1` [Example 286, 2-(ethylamino)-6-(3-(4-((ethylamino)methyl)-1H-1,2,3-triazol-1-yl)phenyl)-9-methyl-6,7,8,9-tetrahydro-5H-pyrimido[4,5-e] [1,4]diazepin-5-one], for which the Ki fell in the range of 100 to 500 nM.
On the same count and under the same terms, the figure for `CCNc1ncc2c(n1)N(C)CCN(c1cccc(-n3cc(CNCCOCCO)nn3)c1)C2=O` [Example 290, 2-(ethylamino)-6-(3-(4-(((2-(2-hydroxyethoxy)ethyl)amino)methyl)-1H-1,2,3-triazol-1-yl)phenyl)-9-methyl-6,7,8,9-tetrahydro-5H-pyrimido[4,5-e] [1,4]diazepin-5-one] is 100 to 500 nM; for `CCNc1ncc2c(n1)N(C)CCN(c1cccc(-n3cc(CN4CCC(c5ccccc5)(N(C)C)CC4)nn3)c1)C2=O` [Example 291, 6-(3-(4-((4-(dimethylamino)-4-phenylpiperidin-1-yl)methyl)-1H-1,2,3-triazol-1-yl)phenyl)-2-(ethylamino)-9-methyl-6,7,8,9-tetrahydro-5H-pyrimido[4,5-e] [1,4]diazepin-5-one] it is 100 to 500 nM; for `CCNc1ncc2c(n1)N(C)CCN(c1cccc(CN3CCC(c4ccccc4)(N(C)C)CC3)c1)C2=O` [Example 292, 6-(3-((4-(dimethylamino)-4-phenylpiperidin-1-yl)methyl)phenyl)-2-(ethylamino)-9-methyl-6,7,8,9-tetrahydro-5H-pyrimido[4,5-e] [1,4]diazepin-5-one] it is 500 to 3000 nM.
Same read-out and setting: with `CCNc1ncc2c(n1)N(C)CCN(c1cccc(-n3cc(CN4CCC(c5ccccc5)(N(C)C)CC4)cn3)c1)C2=O` [Example 294, 6-(3-(4-((4-(dimethylamino)-4-phenylpiperidin-1-yl)methyl)-1H-pyrazol-1-yl)phenyl)-2-(ethylamino)-9-methyl-6,7,8,9-tetrahydro-5H-pyrimido[4,5-e] [1,4]diazepin-5-one] the figure was 500 to 3000 nM; with `CCNc1ncc2c(n1)N(C)CCN(c1cccc(-n3cc(CN4CCC(c5cccc(O)c5)(N(C)C)CC4)cn3)c1)C2=O` [Example 295, 6-(3-(4-((4-(dimethylamino)-4-(3-hydroxyphenyl)piperidin-1-yl)methyl)-1H-pyrazol-1-yl)phenyl)-2-(ethylamino)-9-methyl-6,7,8,9-tetrahydro-5H-pyrimido[4,5-e] [1,4]diazepin-5-one], 100 to 500 nM.
Still for that read-out and setting: the figure for `CCNc1ncc2c(n1)N(C)CCN(c1cccc(-n3cnc(CN4CCC(c5cccc(O)c5)(N(C)C)CC4)c3)c1)C2=O` [Example 296, 6-(3-(4-((4-(dimethylamino)-4-(3-hydroxyphenyl)piperidin-1-yl)methyl)-1H-imidazol-1-yl)phenyl)-2-(ethylamino)-9-methyl-6,7,8,9-tetrahydro-5H-pyrimido[4,5-e][1,4]diazepin-5-one] is 500 to 3000 nM.
For the compound `CN(CCC(Oc1cccc(N2CCN(C)c3cc(Cl)ncc3C2=O)c1)c1cccs1)C(=O)OCC[Si](C)(C)C` (stereo not shown) [Example 297, 2-(trimethylsilyl)ethyl (3-(3-(8-chloro-1-methyl-5-oxo-1,2,3,5-tetrahydro-4H-pyrido[4,3-e][1,4]diazepin-4-yl)phenoxy)-3-(thiophen-2-yl)propyl)(methyl) carbamate], the inhibition constant (Ki) was > 3000 nM.
Same read-out and setting: the figure for `CN(CC[C@H](Oc1cccc(N2CCN(C)c3cc(Cl)ncc3C2=O)c1)c1cccs1)C(=O)OCC[Si](C)(C)C` [Example 298, 2-(trimethylsilyl)ethyl (S)-(3-(3-(8-chloro-1-methyl-5-oxo-1,2,3,5-tetrahydro-4H-pyrido[4,3-e][1,4]diazepin-4-yl)phenoxy)-3-(thiophen-2-yl)propyl)(methyl) carbamate] is > 3000 nM; for `CN(CC[C@H](Oc1ccc(CN2CCN(C)c3cc(Cl)ncc3C2=O)cc1)c1cccs1)C(=O)OCC[Si](C)(C)C` [Example 299, 2-(trimethylsilyl)ethyl (S)-(3-(4-((8-chloro-1-methyl-5-oxo-1,2,3,5-tetrahydro-4H-pyrido[4,3-e][1,4]diazepin-4-yl)methyl)phenoxy)-3-(thiophen-2-yl)propyl)(methyl) carbamate] it is > 3000 nM; for `CN(CCC(OCc1cccc(N2CCN(C)c3cc(Cl)ncc3C2=O)c1)c1ccccc1)C(=O)OC(C)(C)C` (stereo not shown) [Example 300, tert-butyl (3-((3-(8-chloro-1-methyl-5-oxo-1,2,3,5-tetrahydro-4H-pyrido[4,3-e][1,4]diazepin-4-yl)benzyl)oxy)-3-phenylpropyl)(methyl) carbamate] it is > 3000 nM.
Still for that read-out and setting: with `Cc1cc2c(cn1)C(=O)N(Cc1ccc(O[C@@H](CCN(C)C(=O)OCC[Si](C)(C)C)c3cccs3)cc1)CCN2C` [Example 301, 2-(trimethylsilyl)ethyl (S)-(3-(4-((1,8-dimethyl-5-oxo-1,2,3,5-tetrahydro-4H-pyrido[4,3-e][1,4]diazepin-4-yl)methyl)phenoxy)-3-(thiophen-2-yl)propyl)(methyl) carbamate] the figure was > 3000 nM; with `Cc1cc2c(cn1)C(=O)N(c1cccc(OC(CCN(C)C(=O)OCC[Si](C)(C)C)c3cccs3)c1)CCN2C` (stereo not shown) [Example 302, 2-(trimethylsilyl)ethyl (3-(3-(1,8-dimethyl-5-oxo-1,2,3,5-tetrahydro-4H-pyrido[4,3-e][1,4]diazepin-4-yl)phenoxy)-3-(thiophen-2-yl)propyl) (methyl)carbamate], > 3000 nM; with `Cc1cc2c(cn1)C(=O)N(c1cccc(COC(CCN(C)C(=O)OC(C)(C)C)c3ccccc3)c1)CCN2C` (stereo not shown) [Example 303, tert-butyl (3-((3-(1,8-dimethyl-5-oxo-1,2,3,5-tetrahydro-4H-pyrido[4,3-e][1,4]diazepin-4-yl)benzyl)oxy)-3-phenylpropyl)(methyl) carbamate], > 3000 nM.
Same read-out and setting: with `CNCCC(OCc1cccc(N2CCN(C)c3cc(C)ncc3C2=O)c1)c1ccccc1` (stereo not shown) [Example 306, 1,8-dimethyl-4-(3-((3-(methylamino)-1-phenylpropoxy)methyl)phenyl)-1,2,3,4-tetrahydro-5H-pyrido[4,3-e] [1,4]diazepin-5-one] the figure was 500 to 3000 nM.
As to `CCNc1ncc2c(n1)N(C)CCN(c1cccc(C(=O)OC)c1)C2=O` [Example 309, methyl 3-(2-(ethylamino)-9-methyl-5-oxo-5,7,8,9-tetrahydro-6H-pyrimido[4,5-e][1,4]diazepin-6-yl)benzoate], the Ki lay within 100 to 500 nM.
The same measure, in the same setting: the figure for `CCNc1ncc2c(n1)N(C)CCN(c1cccc(Br)c1)C2=O` [Example 311, 6-(3-bromophenyl)-2-(ethylamino)-9-methyl-6,7,8,9-tetrahydro-5H-pyrimido[4,5-e][1,4]diazepin-5-one] is 500 to 3000 nM; for `CCNc1ncc2c(n1)N(C)CCN(c1cccc(N3CCC(c4ccccc4)(N(C)C)CC3)c1)C2=O` [Example 312, 6-(3-(4-(dimethylamino)-4-phenylpiperidin-1-yl)phenyl)-2-(ethylamino)-9-methyl-6,7,8,9-tetrahydro-5H-pyrimido[4,5-e][1,4]diazepin-5-one] it is 500 to 3000 nM.

In general, pKi refers to −log10 of the Ki, conventionally taken in molar units. The Ki is a dissociation constant, usually derived from enzyme kinetics or from competition with a known ligand.

For the origin of these results see patent publication US10590140B2, “Tetrahydropyrimidodiazepine and dihydropyridodiazepine compounds for treating pain and pain related conditions” (ESTEVE PHARMACEUTICALS, S.A., priority 2016, dated 2020).
